Data taken from patent US7700628B2, “Aromatic ether derivatives useful as thrombin inhibitors” (Eli Lilly and Company, priority 2004, dated 2010).
Counter-ions that a name gives are not always drawn.

Tests used:
human thrombin = human thrombin (Homo sapiens, UniProt P00734); test: Kass determination, chromogenic substrate hydrolysis, thrombin; format: biochemical; conditions: apparent association constant, mean value; set range given with 'or greater'
Protocol: (§1) The inhibition by a compound of the invention of a serine protease of the human blood coagulation system or of the fibrinolytic system, as well as of trypsin, is determined in vitro for the particular enzyme by measuring its inhibitor binding affinity in an assay in which the enzyme hydrolyzes a particular chromogenic substrate, for example as described in Smith, G. F.; Gifford-Moore, D.; Craft, T. J.; Chirgadze, N.; Ruterbories, K. J.; Lindstrom, T. D.; Satterwhite, J. H. Efegatran: A New Cardiovascular Anticoagulant. New Anticoagulants for the Cardiovascular Patient; Pifarre, R., Ed.; Hanley & Belfus, Inc.: Philadelphia, 1997; pp. 265-300. The inhibitor binding affinity is measured as apparent association constant Kass which is the hypothetical equilibrium constant for the reaction between enzyme and the test inhibitor compound (I).
(§2) [formula] [formula] Conveniently, enzyme inhibition kinetics are performed in a high-volume protocol using automated dilutions of inhibitors (n=3 for each of four to eight inhibitor concentrations) into 96-well polystyrene plates and reaction rates are determined from the rate of hydrolysis of appropriate p-nitroanilide substrates at 405 nm using a Thermomax plate reader from Molecular Devices (San Francisco, Calif.). The same general protocol is followed for all enzymes studied: In each well is placed 50 μL buffer (0.06 M Tris, 0.3 M NaCl, pH 7.4), followed by 25 μL of inhibitor solution (in 100 % methanol) and 25 μL enzyme solution (e.g., human factor Xa, 32 nM in 0.03 M Tris, 0.15 M NaCl, 1 mg/mL HAS); finally, within two minutes, 150 μL aqueous solution of chromogenic substrate (e.g., 0.3 mM BzIle-Glu-Gly-Arg-pNA) is added to start the enzymatic reaction. Final factor Xa concentration is 3.2 nM. The rates of chromogenic substrate hydrolysis reactions provide a linear relationship with the enzymes studied such that free enzyme can be quantitated in reaction mixtures. Data is analyzed directly as rates by the Softmax program to produce [free enzyme] calculations for tight-binding Kass determinations. For apparent Kass determinations, human factor Xa is used to hydrolyze BzIle-Glu-Gly- Arg-pNA (SEQ ID NO: 1); 5.9 nM human thrombin is used to hydrolyze 0.2 mM BzPhe-Val-Arg-pNA; 3.4 nM human plasmin is used with 0.5 mM HD-Val-Leu-Lys-pNA; 1.2 nM human nt-PA is used with 0.8 mM HD-Ile-Pro-Arg-pNA; and 0.4 nM urokinase is used with 0.4 mM pyro-Glu-Gly-Arg-pNA.
(§3) Kass is calculated for a range of concentrations of test compounds which produce hydrolysis inhibition of between 20% and 80% of control and the mean value reported in units of liter per mole. […] For example, the respective Kass values as to factor Xa/thrombin for Examples 41, 60, 106, 115, 1403 and 1414 are 407/16.9, 430/4.2, 3630/308, 3013/40 and 3630/308×10^6 L/mole.

human factor Xa = biological target: T1, human factor Xa (Homo sapiens, UniProt P00742); test: Kass determination, chromogenic substrate hydrolysis, factor Xa; format: biochemical; conditions: apparent association constant, mean value; set range given with 'or greater'
T1 construct: enzyme solution (e.g., human factor Xa, 32 nM in 0.03 M Tris, 0.15 M NaCl, 1 mg/mL HAS)
T1 sequence (P00742 235-488 limits assumed): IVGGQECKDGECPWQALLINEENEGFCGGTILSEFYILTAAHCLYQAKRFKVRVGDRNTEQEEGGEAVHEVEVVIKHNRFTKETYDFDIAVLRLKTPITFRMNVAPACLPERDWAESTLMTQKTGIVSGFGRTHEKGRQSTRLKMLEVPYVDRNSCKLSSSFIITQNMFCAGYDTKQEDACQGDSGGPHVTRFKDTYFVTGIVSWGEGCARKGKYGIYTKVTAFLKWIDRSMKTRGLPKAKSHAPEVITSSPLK
T1 sequence (P00742 41-179 partner limits assumed): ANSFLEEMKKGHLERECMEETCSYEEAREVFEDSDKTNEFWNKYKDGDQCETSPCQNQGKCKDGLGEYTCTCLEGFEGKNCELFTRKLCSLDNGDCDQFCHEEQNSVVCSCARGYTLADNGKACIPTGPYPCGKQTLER
Protocol: as §1, §2, §3

Row | Kass for thrombin (factor IIa) (human thrombin) [L/mol] | Kass for factor Xa (human factor Xa) [L/mol] | melting point [°C] | SMILES
1 | 1.69e+07 | 4.07e+08 |  | NCCOc1cc(N2CCOCC2)ccc1C(=O)Nc1ccc(F)cc1C(=O)Nc1ccc(Cl)cn1 [Example 41, 2-[2-(2-Aminoethoxy)-4-(morpholin-4-yl)benzoylamino]-N-(5-chloro-pyridin-2-yl)-5-fluorobenzamide Trifluoroacetate]
2 |  |  | 153.6 to 154.5 | CC(C)(C)c1ccc(CNc2ccc(Cl)cc2C(=O)Nc2ccc(Cl)cn2)c(OC2CCNCC2)c1 [Example 56, 2-[4-(tert-Butyl)-2-(piperidin-4-yloxy)benzylamino]-5-chloro-N-(5-chloropyridin-2-yl)benzamide]
3 |  |  | 169 to 170 | CC(C)(C)c1ccc(CNc2ccccc2C(=O)Nc2ccc(Cl)cn2)c(OC2CCNCC2)c1 [Example 59, 2-[4-(tert-Butyl)-2-(piperidin-4-yloxy)benzylamino]-N-(5-chloro-pyridin-2-yl)benzamide]
4 | 4.2e+06 | 4.3e+08 |  | CC(C)(N)c1ccc(C(=O)Nc2ccccc2C(=O)Nc2ccc(Cl)cn2)c(OC2CCNCC2)c1 [Example 60, 2-[4-(1-Amino-1-methyl)ethyl-2-(piperidin-4-yloxy)benzoylamino]-N-(5-chloropyridin-2-yl)benzamide Bis(trifluoroacetate)]
5 | 3.08e+08 | 3.63e+09 |  | CSc1ccc(C(=O)Nc2ccc(Cl)cc2C(=O)Nc2ccc(Cl)cn2)c(OCCCN)c1 [Example 106, 2-[2-(3-Aminopropoxy)-4-(methylthio)benzoylamino]-5-chloro-N-(5-chloropyridin-2-yl)benzamide]
6 | 4e+07 | 3.013e+09 |  | NCCCOc1cc(N2CCOCC2)ccc1C(=O)Nc1ccc(F)cc1C(=O)Nc1ccc(Cl)cn1 [Example 115, 2-[2-(3-Aminopropoxy)-4-(morpholin-4-yl)benzoylamino]-N-(5-chloropyridin-2-yl)-5-fluorobenzamide]
